These results are taken from ChEMBL document CHEMBL1177704, “Unexpected reaction of 2-alkylsulfanylimidazoles to imidazol-2-ones: pyridinylimidazol-2-ones as novel potent p38alpha mitogen-activated protein kinase inhibitors” (J Med Chem, 2010).

Experiment [1] has as its target Mitogen-activated protein kinase 14 (Homo sapiens, UniProt Q16539). Put plainly: Inhibition of p38alpha.
For another experiment, the system named is Blood. Put plainly: Antiinflammatory activity in human whole blood assessed as inhibition of LPS-stimulated TNFalpha release after 15 mins by ELISA. Conditions: 0.25 h. Format: functional, tissue-based. A general note: An ELISA detects its analyte on a solid surface through an enzyme-linked reagent.

Mitogen-activated protein kinase 14, sequence (Q16539 whole entry): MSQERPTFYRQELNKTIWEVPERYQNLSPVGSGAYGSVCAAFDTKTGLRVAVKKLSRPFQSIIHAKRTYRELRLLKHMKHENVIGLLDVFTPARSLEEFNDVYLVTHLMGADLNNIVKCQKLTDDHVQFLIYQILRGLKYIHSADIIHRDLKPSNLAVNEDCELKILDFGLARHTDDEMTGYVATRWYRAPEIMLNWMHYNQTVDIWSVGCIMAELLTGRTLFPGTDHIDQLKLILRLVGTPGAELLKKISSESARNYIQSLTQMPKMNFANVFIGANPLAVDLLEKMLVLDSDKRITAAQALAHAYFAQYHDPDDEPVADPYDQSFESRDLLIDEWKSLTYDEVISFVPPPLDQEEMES

Consider `O=c1[nH]c(-c2ccncc2)c(-c2ccc(F)cc2)[nH]1`, for which, in experiment [1], the IC50 came out at 468 nM.
In experiment [1], `C[C@@H](Nc1cc(-c2[nH]c(=O)[nH]c2-c2ccc(F)cc2)ccn1)c1ccccc1` came in with an IC50 of 324 nM.
Turning to `O=c1[nH]c(-c2ccc(F)cc2)c(-c2ccnc(N[C@H]3CC[C@H](O)CC3)c2)[nH]1`, the figures for the IC50 (with Blood; in experiment [1]) were 2920 nM and 23 nM, respectively.
As to `C[S+]([O-])c1ccc(-c2nc(-c3ccc(F)cc3)c(-c3ccncc3)[nH]2)cc1` (configuration not stated) [SB-203580], the IC50 in the experiment on Blood amounted to 1760 nM.
On to `CC(C)[C@H](C)Nc1cc(-c2[nH]c(=O)[nH]c2-c2ccc(F)cc2)ccn1`, for which the figures for the IC50 (in the experiment with Blood; in experiment [1]) were 381 nM and 49 nM, respectively.

In general, IC50 refers to the concentration at which inhibition is half-maximal.
